Test results: paper PMC6145453 (ACS infectious diseases, 2018)
Values joined by “and” are separate entries in the source; they are usually repeats but may differ in a detail not shown here. Equal entries are not always repeated. “Also recorded” adds a separate entry of the source.

What was measured:
influenza A/WSN/33 virus [1] = experiment: microbe, parasite or virus in culture; format: cell-based, influenza A virus (H1N1); settings: for IC50: Influenza A virus, H1N1|WSN, A549, 24 h
influenza A/WSN/33 virus [2] = experiment: microbe, parasite or virus in culture; format: cell-based, influenza A virus (H1N1); settings: MDCK
[3] = tested on: A/California/04/2009 (H1N1); experiment: microbe, parasite or virus in culture; format: cell-based, influenza A virus; settings: for IC50: Influenza A virus, H1N1, A549
[4] = tested on: A/Puerto Rico/8/1934 (H1N1); experiment: microbe, parasite or virus in culture; format: cell-based, influenza A virus; settings: for IC50: Influenza A virus, H1N1, A549, 24 h
[5] = tested on: A/Brisbane/59/2007-S (oseltamivir sensitive); experiment: microbe, parasite or virus in culture; format: cell-based; settings: Influenza A virus, H1N1, A549, 24 h
[6] = tested on: A/Panama/2007/1999 (H3N2); experiment: microbe, parasite or virus in culture; format: cell-based, influenza A virus; settings: for IC50: Influenza A virus, H3N2, A549
A/Wyoming/03/2003 (H3N2) = experiment: microbe, parasite or virus in culture; format: cell-based; settings: Influenza A virus, H3N2, A549, 24 h
[7] = tested on: A/Vietnam/1203/2004 (H5N1); experiment: microbe, parasite or virus in culture; format: cell-based, influenza A virus; settings: for IC50: Influenza A virus, H5N1, A549
B/Yamagata/16/1988 = experiment: microbe, parasite or virus in culture; format: cell-based; settings: Influenza B virus, MDCK
B/Brisbane/60/2008 = experiment: microbe, parasite or virus in culture; format: cell-based; settings: Influenza B virus, MDCK, 24 h
[8] = tested on: A/Puerto Rico/8/1934 (H1N1) virus expressing GFP; experiment: microbe, parasite or virus in culture; format: cell-based, influenza A virus; settings: for IC50: Influenza A virus, H1N1, read-out: PRS IC50
[9] = tested on: A/Vietnam/1203/2004 (H5N1-Halo) GFP virus; experiment: microbe, parasite or virus in culture; format: cell-based, influenza A virus; settings: for IC50: Influenza A virus, H5N1, read-out: H5N1 IC50
influenza A/WSN/33 virus [10] = format: cell-based
[11] = tested on: purified recombinant wild-type WSN NP protein; format: biochemical, influenza A/WSN/33 virus
[12] = tested on: NP (A/WSN/33 infected A549 cells); format: cell-based, influenza A virus
[13] = tested on: NP (A/WSN/33 infected A549 cells); format: cell-based, influenza A virus; remark: listed apart in the source
[14] = tested on: viral mRNA, vRNA and protein expression, A/WSN/33; format: cell-based, influenza A virus
[15] = tested on: viral mRNA, vRNA and protein expression, rY40F-WSN virus; format: cell-based, influenza A virus
PR8-GFP virus = format: cell-based, influenza A virus
[16] = tested on: vesicular stomatitis virus (VSV); format: cell-based
in vitro [17] = settings: human
in vitro [18] = settings: dog

SMILES	IC50 (influenza A/WSN/33 virus [1]) [µM]	IC50 [3] [µM]	IC50 [4] [µM]	IC50 [5] [µM]	IC50 [6] [µM]	IC50 (A/Wyoming/03/2003 (H3N2)) [µM]	IC50 [7] [µM]	IC50 (B/Yamagata/16/1988) [µM]	IC50 (B/Brisbane/60/2008) [µM]	IC50 [8] [µM]	IC50 [9] [µM]	effect on NP oligomer ladder / low molecular weight band [11]	effect on low molecular weight NP band [11]	effect on NP oligomer size [12]	effect on low molecular weight NP pool [12]	NP localization [13]	time of appearance of NP aggregates [13]	inhibition of transcription and replication of rY40F-WSN virus [15]	also measured
CC(C)(C)c1ccc(C(=O)Nc2ccc(NC(=O)c3ccc(C(C)(C)C)cc3)cc2)cc1 [S119, N,N′-(1,4-Phenylene)bis(4-(tert-butyl)benzamide)]	0.02	27.4	> 50	> 50	> 50	> 50	> 50	> 50	> 50	> 50	> 50	low molecular weight band is completely lost	low molecular weight NP band is lost	shift to smaller oligomers	distinct loss	NP translocation to the nucleus was delayed	not until the 24 h post-infection time point	completely resistant	reduction in WSN viral titers (influenza A/WSN/33 virus [1]): 4 log; IC50 (influenza A/WSN/33 virus [2]): 0.06 µM; reduction in infectious titer [3]: 77%; activity against strain [4]: ineffective; activity against strain [6]: ineffective; activity against strain [7]: ineffective; antiviral activity on screened strain [8]: no detectable antiviral activity; antiviral activity on screened strain [9]: no detectable antiviral activity; effect on viral titer when added at 6 h after infection (influenza A/WSN/33 virus [10]): 1 log; virus inhibition when added 4 h after infection (influenza A/WSN/33 virus [10]): significant virus inhibition; virus inhibition when added before infection and up to 2 h after infection (influenza A/WSN/33 virus [10]): maximally inhibit; NP protein levels [14]: moderately reduced; NS1 protein expression [14]: unaffected; mRNA expression from the NP segment [14]: severely reduced; mRNA expression from the NS segment [14]: slightly reduced; mRNA expression from the PB2 segment [14]: reduced to undetectable levels; vRNA from any segment [14]: could not be detected; Cytotoxicity (A549 cells; A549 cells, concentrations as high as 500 μM): very little toxicity
CC(C)(C)c1ccc(NC(=O)c2ccc(C(C)(C)C)cc2)cc1 [S119-2, 4-(tert-butyl)-N-(4-(tert-butyl)phenyl)benzamide]	–	–	–	–	–	–	–	–	–	13.9	44.5	–	–	–	–	–	–	–	–
CC(C)(C)c1ccc(C(=O)Nc2ccc(Nc3ccccc3)cc2)cc1 [S119-8, 4-(tert-butyl)-N-(4-(phenylamino)-phenyl)benzamide]	1.43	5.32	6.05	6.68	6.43	11.5	7.94	2.08	15.2	6.05	8.42	–	–	–	–	–	–	–	combination index (PR8-GFP virus): 0.79 and 0.57; type of interaction (PR8-GFP virus): synergistic; also recorded: additive to slightly synergistic; inhibition of VSV [16]: did not inhibit; also recorded: does not inhibit; CC50 (A549 cells; human): 40.7 µM; CC50 (in vitro [17]; CC50): > 50 µM; CC50 (in vitro [17]; CC50 (50% cytotoxic concentration)): 66.1 µM; CC50 (in vitro [18]): > 50 µM
CC(C)(C)c1ccc(C(=O)Nc2ccc(Oc3ccccc3)cc2)cc1 [S119-3, 4-(tert-butyl)-N-(4-phenoxyphenyl)benzamide]	–	–	–	–	–	–	–	–	–	11.4	17.4	–	–	–	–	–	–	–	–
Cc1onc(-c2ccccc2)c1C(=O)N1CCN(c2ccc([N+](=O)[O-])cc2Cl)CC1 [nucleozin, reference compound]	–	–	–	–	–	–	–	–	–	–	–	oligomer ladder becomes a smear	low molecular weight NP band is lost	shift to smaller oligomers	distinct loss	NP remains exclusively in the cytoplasm	visible aggregates by 4 h post-infection	efficient inhibition	mRNA, vRNA and viral protein expression from PB2, NP and NS segments [14]: complete loss
CC(C)(C)c1ccc(C(=O)Nc2cccc(NC(=O)c3ccc(C(C)(C)C)cc3)c2)cc1 [S119-6, N,N′-(1,3-phenylene)bis(4-(tert-butyl)benzamide)]	–	–	–	–	–	–	–	–	–	> 50	> 50	–	–	–	–	–	–	–	–
